# Measurements: patent publication US20040082558A1, “Administration of estradiol metabolites for inhibition of drug-induced nephrotoxicity” (priority 2002, published 2004)
# How the values were obtained:
# Format in all cases: in vivo, rat
# PAN-treated rats = experiment: Mortality during 12-week treatment of PAN-treated rats; settings: n=13 per group
# Description: (§1) After baseline metabolic parameters were measured, animals were randomly assigned to receive subcutaneous saline (3 ml/kg; Control group, n=9) or puromycin aminonucleoside (PAN) (75 mg/kg; drug-induced nephrotoxic animals, n=26). PAN is a drug widely used to produce drug-induced nephrotoxicity in laboratory animals. Grond, J., et al., Contributions to Nephrology 60:83 (1988), the disclosure of which is incorporated herein by reference. Injections of PAN (20 mg/kg) were repeated after 2, 4, 8 and 10 weeks of treatment. Three hours after the initial injections, control animals were implanted with osmotic minipumps (model 2ML4, Alza, Palo Alto, Calif.) containing vehicle (polyethylene glycol 400, 2.5 μl/hour), whereas PAN-treated animals were implanted with osmotic minipumps containing either vehicle (PAN group, n=13) or 2-hydroxyestradiol (10 μg/kg/hour, PAN+2OHE group, n=13). Assignment to the PAN and PAN+2OHE groups was random. Six animals in the PAN group and 2 animals in the PAN+2OHE group died during the treatment, and these animals were not used in the final data analysis.
# collagen IV = experiment: Glomerular immunohistochemical staining for collagen IV, quantitative image analysis; settings: 12 weeks of treatment, kidney sections
# Description: (§2) Animals were killed by an overdose of anesthetic and kidneys were removed and weighed. One kidney was fixed in 10% formalin buffer and the second kidney was quick-frozen in liquid nitrogen and stored at −70° C. Kidney tissue samples were sectioned and processed into paraffin blocks for light microscopy. For labeling of collagen IV, renal cortical segments (5 μm) were incubated overnight at 4° C. with rabbit anti-mouse collagen IV antibody (dilution 1/500 ) obtained from Chemicon International Inc. (Temecula, Calif.). A primary monoclonal mouse antibody ( 1/200 dilution; Dako Corporation, Carpenteria, Calif.) was used to label proliferating cell nuclear antigen (PCNA). […] Nonspecific staining was assessed by replacing the primary antibody with phosphate buffered saline. […] Immunochemical staining for collagen IV and PCNA quantitatively was done with a SAMBA 4000 image analyzer (Image Products International, Chantilly, Va.) using specialized computer software (Immuno-Analysis, version 4.1, Microsoft, Richmond, Wash.), a color video camera and a Compaq computer. […] Ten high power fields (×400) were assessed for staining density or positively marked cells for ED-1. […] Staining intensity of positive areas was also assessed (mean optical density) and a mean quick score was then calculated (mean optical density×labeling index).
# [1] = system: proliferating cell nuclear antigen (PCNA); experiment: Glomerular immunohistochemical staining for PCNA, quantitative image analysis; settings: 12 weeks of treatment, kidney sections
# Description: as §2
# PAN-nephropathic rats [2] = experiment: Acute measurements of renal hemodynamics and excretory function at 12 weeks; settings: 12 weeks of treatment
# Description: as §1
# At 12 weeks into treatment, animals were anesthetized with pentobarbital (45 mg/kg i.p.) and instrumented for measurements of renal hemodynamics and excretory function. Two polyethylene (PE)-50 catheters were inserted into left jugular vein for delivery of supplemental anesthetics and saline infusion (50 μl/min), respectively. Another PE-50 catheter was inserted into left carotid artery and connected to a blood-pressure analyzer (Micro-Med., Inc., Louisville, Ky.) for continuous measurement of blood pressure and heart rate. A PE-10 catheter was inserted into the left ureter to facilitate collection of urine, and a flow probe (Model 1RB; Transonic Systems, Inc., Ithaca, N.Y.) was placed on the left renal artery for determination of renal blood flow, which was used to calculate renal vascular resistance. Next, an infusion of ^14C-inulin (0.035 μCi/20 μl saline/min) was initiated and after 60 minutes, two 30-minute clearance periods were conducted. A mid-point blood sample (300 μl) was collected and plasma and urine ^14C-inulin radioactivity was measured. Renal clearance of ^14C-inulin was calculated as an estimate of glomerular filtration rate.
# PAN-nephropathic rats [3] = experiment: Metabolic cage measurements (24-hour urine, intake, plasma) in PAN-nephropathic rats
# Description: A total of thirty-five, male Sprague Dawley rats (approximately 290 grams) were used. Rats were housed in the University of Pittsburgh Medical Center animal care facility (temperature, 22° C.; light cycle, 12 hours; relative humidity, 55%). Animals were fed Pro Lab RMH 3000 rodent diet (PMI Nutrition Inc., St Louis, Mo.) and were given water ad libitum. Institutional guidelines for animal welfare were followed, and the University of Pittsburgh Institutional Animal Care and Use Committee approved experimental protocols.
# Before initiating treatment, and 3, and 6 and 11 weeks into the treatments, animals were placed in metabolic cages and allowed to acclimatize for two days before conducting the 24-hour measurements of urine volume, food and water intake and urinary sodium, potassium, creatinine, and protein excretion. Tail vein blood samples were also taken for measurement of plasma sodium, potassium, albumin and creatinine. Plasma and urine samples were analyzed for sodium and potassium concentrations using a flame photometer (Model IL-943; Instrumentations Laboratory Inc., Lexington, Ma.) and for creatinine concentrations using a creatinine analyzer (Creatinine Analyzer 2, Beckman Instrument, Inc., Fullerton Calif., USA). Total urine proteins were measured by a spectrophotometric assay using bicinchoninic acid reagent (Pierce; Rockford, Ill.) and a modification of Lowry method. Lowry, O. H., et al., J. Biol. Chem. 193: 265 (1951), the disclosure of which is incorporated herein by reference.
# as §1
# PAN-nephropathic rats [4] = experiment: Plasma testosterone radioimmunoassay; settings: 12 weeks of treatment, male rats
# Description: An aliquot of mid-point blood sample drawn during the first clearance period was used for testosterone measurements. Plasma testosterone levels were determined by radioimmunoassay using a commercial kit provided by ICN Biomedicals, Inc. (Costa Mesa, Calif.) according to the protocol of the manufacturer.
# ED1 positive cells = experiment: Immunohistochemical staining for ED1 positive cells (macrophage infiltration) in glomeruli and interstitium; settings: 12 weeks of treatment, kidney sections
# Description: as §2
compound,measurement,setting,value
"CN(C)c1ncnc2c1ncn2[C@@H]1O[C@H](CO)[C@@H](N)[C@H]1O [PAN, puromycin aminonucleoside]",Animals died during the treatment,PAN-treated rats,Six
same,"Glomerular collagen IV, labeling index (in words, FIGS. 5 and 6)",collagen IV,significant increase in glomerular collagen IV content
same,"Labeling index of glomerular immunoreactive PCNA (in words, FIG. 3)",[1],markedly expanded
same,Blood pressure (in words),PAN-nephropathic rats [2],increased blood pressure
same,"GFR, inulin clearance (in words)",PAN-nephropathic rats [2],"decreased renal blood flow, renal plasma flow, hematocrit and glomerular filtration rate"
same,Hematocrit,PAN-nephropathic rats [2],27 ± 2%
same,Left Kidney,PAN-nephropathic rats [2],2.10 ± 0.13 g
same,Glomerular Filtration Rate,PAN-nephropathic rats [2]; 14C-inulin clearance,0.21 ± 0.07 ml/min/g kidney
same,Body Weight,PAN-nephropathic rats [2]; acute experiment,368 ± 15
same,Mean Blood Pressure,PAN-nephropathic rats [2]; anesthetized,153.0 ± 6.1 mm Hg
same,Renal Blood Flow,PAN-nephropathic rats [2]; anesthetized,2.73 ± 0.24 ml/min/g kidney
same,Renal Plasma Flow,PAN-nephropathic rats [2]; anesthetized,2.00 ± 0.19 ml/min/g kidney
same,Renal Vascular Resistance,PAN-nephropathic rats [2]; anesthetized,63.6 ± 7.6 mm Hg/ml/min/g kid
same,Urine Volume,PAN-nephropathic rats [2]; anesthetized,4.43 ± 0.85 μl/min/g kidney
same,Body Weight,PAN-nephropathic rats [3]; 0 wks of treatment (baseline),293 ± 4 g
same,Creatinine Excretion,PAN-nephropathic rats [3]; 0 wks of treatment (baseline),14.9 ± 2.5 mg/day
same,FE - K+ (fractional excretion of potassium),PAN-nephropathic rats [3]; 0 wks of treatment (baseline),10.5 ± 0.7%
same,FE - Na+ (fractional excretion of sodium),PAN-nephropathic rats [3]; 0 wks of treatment (baseline),0.13 ± 0.01%
same,Fluid Intake,PAN-nephropathic rats [3]; 0 wks of treatment (baseline),5.33 ± 0.37 mL/h/kg
same,Food Intake,PAN-nephropathic rats [3]; 0 wks of treatment (baseline),75 ± 2 g/kg/day
same,Plasma Cholesterol,PAN-nephropathic rats [3]; 0 wks of treatment (baseline),53.6 ± 2.3 mg/dL
same,Potassium Excretion,PAN-nephropathic rats [3]; 0 wks of treatment (baseline),10.9 ± 0.72 mEq/day/kg
same,Sodium Excretion,PAN-nephropathic rats [3]; 0 wks of treatment (baseline),4.48 ± 0.95 mEq/day/kg
same,Urine Volume,PAN-nephropathic rats [3]; 0 wks of treatment (baseline),1.78 ± 0.275 mL/h/kg
same,Body Weight,PAN-nephropathic rats [3]; 3 wks of treatment,313 ± 1 g
same,Creatinine Excretion,PAN-nephropathic rats [3]; 3 wks of treatment,11.1 ± 1.1 mg/day
same,FE - K+ (fractional excretion of potassium),PAN-nephropathic rats [3]; 3 wks of treatment,27.3 ± 3.7 %
same,FE - Na+ (fractional excretion of sodium),PAN-nephropathic rats [3]; 3 wks of treatment,0.37 ± 0.06%
same,Fluid Intake,PAN-nephropathic rats [3]; 3 wks of treatment,7.58 ± 0.667 mL/h/kg
same,Food Intake,PAN-nephropathic rats [3]; 3 wks of treatment,74 ± 4 g/kg/day
same,Plasma Cholesterol,PAN-nephropathic rats [3]; 3 wks of treatment,353 ± 39.4 mg/dL
same,Potassium Excretion,PAN-nephropathic rats [3]; 3 wks of treatment,10.7 ± 0.82 mEq/day/kg
same,Sodium Excretion,PAN-nephropathic rats [3]; 3 wks of treatment,3.80 ± 0.58 mEq/day/kg
same,Urine Volume,PAN-nephropathic rats [3]; 3 wks of treatment,4.192 ± 0.462 mL/h/kg
same,Body Weight,PAN-nephropathic rats [3]; 6 wks of treatment,337 ± 15 g
same,Creatinine Excretion,PAN-nephropathic rats [3]; 6 wks of treatment,8.8 ± 0.9 mg/day
same,FE - K+ (fractional excretion of potassium),PAN-nephropathic rats [3]; 6 wks of treatment,30.1 ± 4.6 %
same,FE - Na+ (fractional excretion of sodium),PAN-nephropathic rats [3]; 6 wks of treatment,0.71 ± 0.13 %
same,Fluid Intake,PAN-nephropathic rats [3]; 6 wks of treatment,6.92 ± 0.542 mL/h/kg
same,Food Intake,PAN-nephropathic rats [3]; 6 wks of treatment,69 ± 3 g/kg/day
same,Plasma Cholesterol,PAN-nephropathic rats [3]; 6 wks of treatment,283.5 ± 39.5 mg/dL
same,Potassium Excretion,PAN-nephropathic rats [3]; 6 wks of treatment,8.39 ± 0.61 mEq/day/kg
same,Sodium Excretion,PAN-nephropathic rats [3]; 6 wks of treatment,3.92 ± 0.38 mEq/day/kg
same,Urine Volume,PAN-nephropathic rats [3]; 6 wks of treatment,3.9 ± 0.512 mL/h/kg
same,Body Weight,PAN-nephropathic rats [3]; 11 wks of treatment,382 ± 27 g
same,Creatinine Excretion,PAN-nephropathic rats [3]; 11 wks of treatment,18.7 ± 3.0 mg/day
same,FE - K+ (fractional excretion of potassium),PAN-nephropathic rats [3]; 11 wks of treatment,47.1 ± 7.7 %
same,FE - Na+ (fractional excretion of sodium),PAN-nephropathic rats [3]; 11 wks of treatment,1.18 ± 0.35 %
same,Fluid Intake,PAN-nephropathic rats [3]; 11 wks of treatment,6.62 ± 0.708 mL/h/kg
same,Food Intake,PAN-nephropathic rats [3]; 11 wks of treatment,53 ± 5 g/kg/day
same,Plasma Cholesterol,PAN-nephropathic rats [3]; 11 wks of treatment,349.6 ± 43.0 mg/dL
same,Potassium Excretion,PAN-nephropathic rats [3]; 11 wks of treatment,9.63 ± 1.60 mEq/day/kg
same,Sodium Excretion,PAN-nephropathic rats [3]; 11 wks of treatment,4.18 ± 0.58 mEq/day/kg
same,Urine Volume,PAN-nephropathic rats [3]; 11 wks of treatment,4.712 ± 0.692 mL/h/kg
same,"Creatinine clearance (in words, FIGS. 1B and 1C)",PAN-nephropathic rats [3]; chronic treatment,reduced creatinine clearance
same,"Plasma creatinine levels (in words, FIG. 1A)",PAN-nephropathic rats [3]; chronic treatment,increased plasma creatinine levels
same,"Urinary protein excretion (UPE; in words, FIG. 2A)",PAN-nephropathic rats [3]; chronic treatment,induced severe proteinuria
same,Plasma testosterone levels,PAN-nephropathic rats [4],0.92 ± 0.27 ng/mL
same,"Number of ED1 positive cells in glomeruli and interstitium (in words, FIG. 4)",ED1 positive cells,several-fold increase in the number of ED1 positive cells
